As usually defined, the pIC50 is the IC50 on a negative log10 scale, so that one unit is a factor of ten.

This test deals with GpIIb/IIIa receptor (Homo sapiens, UniProt P05106+P08514). Description: GpIIb/IIIa-Fibrinogen-Elisa (inhibition of fibrinogen-GpIIb/IIIa interaction). Conditions: 1 hour incubation, optical density at 405 nm. The test is classed as binding. The protocol: Microtitre plates are coated overnight with 2 μg/ml isolated activated GpIIb/IIIa receptor. After removing the unbound receptor by washing several times, the surface of the plates is blocked with 1% casein and washed again. The test substance is added in the required concentrations and the plates are incubated for 10 minutes while shaking. The natural ligand of the gpIIb/IIIa receptor, fibrinogen, is added. After 1 hour of incubation the unbound fibrinogen is removed by washing several times and the bound fibrinogen is determined by a peroxidase-conjugated anti-fibrinogen monoclonal antibody by measuring the optical density at 405 nm in an ELISA instrument. Inhibition of a fibrinogen-GpIIb/IIIa interaction results in a low optical density. An IC50 is calculated based on a concentration-effect curve.
The GpIIb/IIIa-Fibrinogen-Elisa is a modification of assays described in the following literature:
Nachman, R. L. & Leung, L. L. K. (1982): Complex formation of platelet membrane glycoproteins IIb and IIIa with fibrinogen. J. Clin. Invest. 69:263-269. Wright, P. S. et al. (1993): An echistatin C-terminal peptide activated GpIIbIIIa binding to fibrinogen, fibronectin, vitronectin and collagen type I and type IV. Biochem. J. 293:263-267.

Where [1] appears, read: isolated activated GpIIb/IIIa receptor on microtitre plates, read-out: IC50.

pIC50: −log10 of the molar value. Like-named read-outs stand apart in the source and are kept apart here.

GpIIb/IIIa receptor, sequence (P08514 32-887 limits assumed): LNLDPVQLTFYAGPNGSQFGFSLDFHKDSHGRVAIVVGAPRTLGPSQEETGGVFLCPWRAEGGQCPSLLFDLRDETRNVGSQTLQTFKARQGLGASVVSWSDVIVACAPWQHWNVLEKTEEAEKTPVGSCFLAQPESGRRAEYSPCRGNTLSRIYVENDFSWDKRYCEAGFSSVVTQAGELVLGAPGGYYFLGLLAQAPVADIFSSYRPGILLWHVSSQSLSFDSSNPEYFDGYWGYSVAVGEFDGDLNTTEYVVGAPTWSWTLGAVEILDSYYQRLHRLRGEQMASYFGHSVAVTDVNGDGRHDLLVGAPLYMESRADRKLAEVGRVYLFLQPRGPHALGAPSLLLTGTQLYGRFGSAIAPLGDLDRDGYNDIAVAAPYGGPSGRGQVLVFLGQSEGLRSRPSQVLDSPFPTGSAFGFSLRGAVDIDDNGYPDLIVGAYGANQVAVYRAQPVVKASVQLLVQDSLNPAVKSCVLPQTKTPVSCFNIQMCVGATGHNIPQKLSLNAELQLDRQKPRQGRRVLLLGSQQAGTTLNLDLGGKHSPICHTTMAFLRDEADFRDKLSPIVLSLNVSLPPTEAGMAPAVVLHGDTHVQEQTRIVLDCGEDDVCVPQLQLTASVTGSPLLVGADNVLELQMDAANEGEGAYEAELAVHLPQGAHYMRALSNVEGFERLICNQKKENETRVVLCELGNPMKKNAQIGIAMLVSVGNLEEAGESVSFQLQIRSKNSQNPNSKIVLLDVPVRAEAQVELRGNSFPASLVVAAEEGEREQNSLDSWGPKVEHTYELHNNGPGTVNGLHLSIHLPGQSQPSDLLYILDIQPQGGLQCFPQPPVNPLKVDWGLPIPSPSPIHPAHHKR
GpIIb/IIIa receptor, sequence (P08514 891-1039 limits assumed): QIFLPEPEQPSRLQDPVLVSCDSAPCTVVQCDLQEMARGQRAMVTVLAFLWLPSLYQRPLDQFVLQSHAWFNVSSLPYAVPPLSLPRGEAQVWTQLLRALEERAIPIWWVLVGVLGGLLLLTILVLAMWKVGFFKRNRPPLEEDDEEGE
GpIIb/IIIa receptor, sequence (P05106 27-788): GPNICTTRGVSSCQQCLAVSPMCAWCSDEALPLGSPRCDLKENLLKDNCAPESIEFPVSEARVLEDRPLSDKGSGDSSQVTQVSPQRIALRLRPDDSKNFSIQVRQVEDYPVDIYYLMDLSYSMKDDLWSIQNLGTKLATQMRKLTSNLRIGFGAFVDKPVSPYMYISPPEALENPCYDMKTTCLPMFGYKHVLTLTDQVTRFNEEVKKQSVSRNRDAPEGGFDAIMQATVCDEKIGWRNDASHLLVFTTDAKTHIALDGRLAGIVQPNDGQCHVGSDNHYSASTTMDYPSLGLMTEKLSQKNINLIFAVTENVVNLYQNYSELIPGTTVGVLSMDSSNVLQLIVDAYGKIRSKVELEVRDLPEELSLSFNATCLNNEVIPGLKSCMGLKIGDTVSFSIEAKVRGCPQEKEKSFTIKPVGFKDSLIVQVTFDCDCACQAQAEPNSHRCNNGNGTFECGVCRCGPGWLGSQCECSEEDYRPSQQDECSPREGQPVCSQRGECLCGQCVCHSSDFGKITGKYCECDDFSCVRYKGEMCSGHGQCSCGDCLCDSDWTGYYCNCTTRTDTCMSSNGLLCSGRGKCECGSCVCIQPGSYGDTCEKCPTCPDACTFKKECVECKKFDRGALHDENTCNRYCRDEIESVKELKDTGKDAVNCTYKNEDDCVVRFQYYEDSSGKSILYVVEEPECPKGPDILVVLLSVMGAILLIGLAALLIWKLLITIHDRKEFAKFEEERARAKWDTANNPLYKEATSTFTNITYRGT

Regarding `O=C(O)CC1(O)CCC(N2CCN(c3ccncc3)CC2)CC1` (stereo not drawn) [cis-1-hydroxy-4-[4-(4-pyridyl)-piperazin-1-yl]-acetic acid, reference compound], under “reference substance, isolated activated GpIIb/IIIa receptor, read-out: IC50 value in the above assay (comparative experiments)”, the negative-log IC50 (pIC50) was 5.60.

`O=C(O)CC1(O)CCC(N2CCC(CCCNc3ccncc3)CC2)CC1` (stereo not shown) [12 (page 35), (1-Hydroxy-4-{4-[3-(pyridin-4-ylamino)-propyl]-piperidin-1-yl}-cyclohexyl)-acetic acid]: the negative-log IC50 (pIC50) under setting [1] was 6.70.

With “(4-{3-[(Pyridin-4-ylamino)-propyl]-piperidin-1-yl}-cyclohexyl)-acetic acid [62 (page 40)]”, the negative-log IC50 (pIC50) under setting [1] is 6.52.

Regarding `O=C(O)CC1(O)CCC(N2CCC(Nc3ccncc3)CC2)CC1` (stereo not shown) [Example 5], under setting [1], the negative logarithm of the IC50 (pIC50) is 6.85.
